Data on seven compounds can be found in patent US5589510A, “Method for inhibiting retroviral infection by administering a naphthalenesulfonic acid compound” (priority 1995, dated 1996).

Usually LD50 stands for the dose expected to kill half of the subjects tested. As a reminder, the inhibition is how much of the control response was suppressed.

The subject of data set [1] is TA98, TA1535, TA1537, TA1538, TA100 and W2P2uvr. The experiment in a line: Ames Test (in the presence of S9). The class given is cell-based, Salmonella typhimurium. The settings on record: for Ames Test, specific mutagenic activity: the higher the value, the higher the mutagenicity. An excerpt:
Six Salmonella typhimuriumstrai strains, TA98, TA1535, TA1537, TA1538, TA100 and W2P2uvr were used in this experiment.

The nature of the next data set: LD50, intravenous, mice. The class given is in vivo. The settings on record: female mice, mortalities within 1 week; for LD50 at 168 h: mouse, in vivo. Here is the method: The test material was administered intravenously to 5 female mice in five increasing doses. Mortalities were recorded within 1 week, and the LD50 was determined with the aid of statistical calculations.

Data set [2] addresses T1, recombinant reverse transcriptase (RT) (Human immunodeficiency virus type 1 group M subtype B, UniProt P04585).
T1 construct: purchased Worthington Biochemical Corporation
Put plainly: Reverse transcriptase inhibition assay. The class given is biochemical, HIV-1. Here is the method: Inhibition of recombinant reverse transcriptase (RT) was performed by using commercially available Boehringer Mannheim RT assay kit (Cat. No. 1468 120) based on incorporation of digoxigenin labeled dUTP into DNA. Recombinant enzyme from HIV-1 was purchased from Worthington Biochemical Corporation. The level of anti-RT activity in the sample was determined by measurement of absorbance using an ELISA reader at 405 nm.

Another data set relates to HIV-1 RF. The experiment in a line: Antiviral assay, Experimental Protocol I (compound added after infection). The settings on record: Human immunodeficiency virus 1, 240 h, 10% FCS, p24 ELISA, read-out: % Inhibition (after day 10); for inhibition at 0.6 µg/mL: 0.6 μg/ml; for inhibition at 1.25 µg/mL: 1.25 μg/ml; for inhibition at 2.5 µg/mL: 2.5 μg/ml; for inhibition at 5 µg/mL: 5 μg/ml. The class given is cell-based. For orientation: ELISA stands for enzyme-linked immunosorbent assay.

The next data set deals with standard Ames Test. The settings on record: literature (K-T. Chung et al); cited from earlier work.
In the next data set the test system is HIV-1 patient isolate IH. The experiment in a line: Inhibition of HIV-1 patient isolate IH in CD4^+ cells. The format is cell-based. The settings on record: Human immunodeficiency virus 1, 288 h, 10% FCS, read-out: % Inhibition (after day 12). The method, then: The inhibitory effects of additional naphthalenesulfonic acid compounds were tested as follows: Experimental Details:
PBMCs were activated for 48 hours in conditioned medium containing PHA at a concentration of 4 μg/ml. Thereafter 10^6 cells were plated in each of the 24 well plates containing 10% FCS or 50% FCS. The test compound, previously dissolved in a glucose solution (1 mg/ml), was then added to each of the wells to achieve the appropriate concentration. The plate was then incubated overnight (about 15 hours) after which 50 μl of cell-free HIV-1 patient isolate was added to each well. The plates were incubated for further 6 to 8 hours after which all free floating solution of virus was washed off. Washing was performed four times.
After removal of the virus, all cultures were resuspended in conditioned medium containing 10% FCS.
For control experiments virus growth was monitored in either 10% FCS or 50% FCS throughout the observation period (15 days).

A further data set relates to reverse transcriptase. As to conditions: literature (Balzarini et al.); cited from earlier work.
A further data set concerns HIV rgp120 / CD4 cells. As to conditions: literature (Balzarini et al.); cited from earlier work.
A further data set concerns syncytium formation. The settings on record: literature (Mohan et al.; Tan et al.; Baba et al.); cited from earlier work.
The subject of a further data set is retroviruses. The settings on record: literature (Ito et al.); cited from earlier work.

Take `COc1cc(-c2ccc(/N=N/c3ccc4c(S(=O)(=O)O)cc(S(=O)(=O)O)c(N)c4c3O)c(OC)c2)ccc1/N=N/c1ccc2c(S(=O)(=O)O)cc(S(=O)(=O)O)c(N)c2c1O` [CSB, Chicago Sky Blue, reference compound]: in data set [1], the “Ames Test result” value is listed as “Positive” and the “Ames Test, specific mutagenic activity” value is listed as 10 colony no/μg. Besides, the LD50 at 168 h in “LD50, intravenous, mice” came out at 100 mg/kg. Further, the “inhibitory effect against reverse transcriptase (in words)” value in data set [2] is recorded as “inhibitory effect against reverse transcriptase”. Also, in the data set with HIV-1 RF, the inhibition at 0.6 µg/mL stood at 37%, the inhibition at 1.25 µg/mL is 70% and the inhibition at 2.5 µg/mL stood at 90%. The “mutagenic effects in Ames Test” value in the data set with standard Ames Test was “strong mutagenic effects”.
In the case of `COc1cc(N=Nc2c(S(=O)(=O)O)cc3cc(S(=O)(=O)O)cc(NC(=O)c4cccc5ccccc45)c3c2O)c(OC)cc1N=Nc1c(S(=O)(=O)O)cc2cc(S(=O)(=O)O)cc(NC(=O)c3ccc(Cl)cc3Cl)c2c1O` [Compound 1], in [1], the “Ames Test result” value is reported as “Negative”. Also, in “LD50, intravenous, mice”, the LD50 at 168 h is 150 mg/kg. In addition, the inhibition at 0.5 µM in data set [2] amounted to 70%. In the data set with HIV-1 RF, the inhibition at 0.6 µg/mL turned out to be 98%, the inhibition at 1.25 µg/mL turned out to be 100%, the inhibition at 2.5 µg/mL stood at 100% and the inhibition at 5 µg/mL worked out at 100%. Moreover, the inhibition at 10 µg/mL with HIV-1 patient isolate IH (10 μg/ml) is 50%. The inhibition at 20 µg/mL in the data set on HIV-1 patient isolate IH (20 μg/ml) amounted to 100%.
Consider `Cc1cc(NC(=O)Nc2ccc(N=Nc3cc(S(=O)(=O)[O-])c4cccc(S(=O)(=O)[O-])c4c3)c(C)c2)ccc1N=Nc1cc(S(=O)(=O)[O-])c2cccc(S(=O)(=O)[O-])c2c1.[Na+].[Na+].[Na+].[Na+]` [Direct Yellow 50], for which, in the data set with reverse transcriptase, the “inhibition of reverse transcriptase” value was “inhibitors of reverse transcriptase”.
In the case of `Cc1cc(-c2ccc(/N=N/c3ccc4c(S(=O)(=O)O)cc(S(=O)(=O)O)c(N)c4c3O)c(C)c2)ccc1/N=N/c1ccc2c(S(=O)(=O)O)cc(S(=O)(=O)O)c(N)c2c1O` [Evans Blue, reference compound], in [1], the “Ames Test result” value is “Positive” and the “Ames Test, specific mutagenic activity” value stood at 10 colony no/μg. In “LD50, intravenous, mice”, this compound showed an LD50 at 168 h of 100 mg/kg. Moreover, the inhibition at 0.5 µM in data set [2] was 48%. The “mutagenic effects in Ames Test” value in the data set on standard Ames Test was “strong mutagenic effects”. In the data set on HIV rgp120 / CD4 cells, the “inhibition of interaction of HIV rgp120 with CD4 cells” value is “inhibitor of the interaction of HIV rgp120 with CD4 cells”.
In “LD50, intravenous, mice” (10080 min), `CC1=C/C(=C(\c2ccc(N)c(S(=O)(=O)[O-])c2)c2ccc(N)c(S(=O)(=O)O)c2)C=C(S(=O)(=O)[O-])C1=N.[Na+].[Na+]` [Fuchsin Acid, reference compound] returned a median lethal dose (LD50) of 100 mg/kg. Also, the “inhibition of syncytium formation” value with syncytium formation is “inhibitors of syncytium formation”.
In “LD50, intravenous, mice”, `Cc1ccc(C(=O)Nc2ccc(S(=O)(=O)O)c3cc(S(=O)(=O)O)cc(S(=O)(=O)O)c23)cc1NC(=O)c1cccc(NC(=O)Nc2cccc(C(=O)Nc3cc(C(=O)Nc4ccc(S(=O)(=O)O)c5cc(S(=O)(=O)O)cc(S(=O)(=O)O)c45)ccc3C)c2)c1` [Suramin, reference compound] yielded an LD50 at 168 h of 40 mg/kg. Also, in [2], the “inhibitory effect against reverse transcriptase (in words)” value is “inhibitory effect against reverse transcriptase” and the inhibition at 0.5 µM came to 68%. In addition, in the data set on HIV-1 RF, the inhibition at 1.25 µg/mL was found to be 0%, the inhibition at 2.5 µg/mL was found to be 0% and the inhibition at 5 µg/mL worked out at 0%. In the data set on reverse transcriptase, the “inhibition of reverse transcriptase” value is “inhibitors of reverse transcriptase”.
Consider dextran sulfate, for which the anti-retroviral activity entry in the data set with retroviruses is “known anti-retroviral compounds”.
